Test results: US20220000835A1, “METHOD FOR TREATING CANCER WITH A COMBINATION OF QUERCETIN AND A CHEMOTHERAPY AGENT” (Quercis Pharma A.G., priority 2014, published 2022)

Tests used:
[1] = Stabilization of quercetin by vitamin B3 and/or vitamin C; format: physicochemical; conditions: in the presence of one or both of vitamin B3 and vitamin C
[2] = system: metastatic bladder cancer; test: Patient with tumor from metastatic bladder cancer, PET scan and patient report; format: in vivo, human; conditions: patient bearing a tumor from metastatic bladder cancer
Method: In a particular example, a patient bearing a tumor resulting from metastatic bladder cancer failed monotherapy with cisplatin. Subsequently, the patient was treated daily with 100 mg cyclophosphamide together with a composition containing 2 g of quercetin. […] Of note, this patient typically would not have been treated further after failing the monotherapy with cisplatin.

Row | stability of quercetin [1] | Compound | outcome of monotherapy [2]
1 | stabilized | O=c1c(O)c(-c2ccc(O)c(O)c2)oc2cc(O)cc(O)c12 [quercetin] | 
2 |  | N.N.[Cl][Pt][Cl] [cisplatin] | failed
